Results: article PMC6522912, “Evaluation of the published kinase inhibitor set to identify multiple inhibitors of bacterial ATP-dependent mur ligases” (Journal of Enzyme Inhibition and Medicinal Chemistry, 2019)

How the values were obtained:
MurD from E. coli = MurD from E. coli (Escherichia coli, UniProt P14900); assay: Steady-state kinetic analysis on MurD; type: biochemical; settings: for Ki: Ki (µM)
Experimental: For compound 1, Ki values were determined against MurD from E. coli. Ki determinations were performed under similar conditions to those described for the MurD inhibition assay, where different concentration of one substrate and a fixed concentration of the other two were used. First, the concentration of UMA was varied (10, 20, 40, 80 µM) at fixed ATP (400 µM) and D-Glu (100 µM), then the concentration of D-Glu was varied (50, 100, 200, 400 µM) at fixed ATP (400 µM) and UMA (80 µM), and finally, the concentration of ATP was varied (100, 200, 400, 800 µM) at fixed UMA (80 µM) and D-Glu (100 µM). The concentrations of 1 were 0, 15, 30, 60, 90, 120, 180 and 250 µM. After a 15 min incubation, 100 µM Biomol green reagent was added, and the absorbance was read at 650 nm after 5 min. All of the experiments were run in triplicate. The data were analysed using the SigmaPlot 12.0 software. The initial velocities were fitted to competitive, non-competitive, uncompetitive and mixed enzyme inhibition. The Ki and mode of inhibition from the best ranking model were used, as provided by the software.

E. coli MurE = E. coli MurE (Escherichia coli, UniProt P22188); assay: Malachite green inhibition assay, MurE; type: biochemical
Experimental: Inhibition of the Mur ligases was determined using the malachite green assay, with slight modifications.
MurE: 50 mM Hepes, pH 8.0, 15 mM MgCl2, 0.005% Triton X-114, 60 µM meso-diaminopimelic acid, 100 µM uridine-5′-diphosphate-N-acetylmuramoyl-L-alanine-D-glutamate, 1000 µM ATP, and purified E. coli MurE[27].
In all cases, the final concentration of DMSO was 5% (v/v). After incubation for 15 min at 37 °C, the enzyme reaction was terminated by addition of 100 µM Biomol green reagent, and the absorbance was measured at 650 nm after 5 min. All of the experiments were run in duplicate. Residual activities were calculated with respect to control assays without the tested compounds, but with the 5% DMSO carrier.
The published kinase inhibitor set compounds were evaluated for inhibition of MurC, D and F ligases from E. coli using the Malachite green assay, which detects orthophosphate generated during enzymatic reactions. To avoid non-specific inhibition due to aggregate formation, all of the compounds were tested in the presence of detergent (0.005% Triton-X114). The data are presented as the residual activities of these Mur ligases in the presence of 100 µM of each test compound (Supporting Information Table S1). […]. The IC50 values against MurC, D, E and F were determined for the selected hit compounds – one representative compound from each structural class was chosen: compound 1[33], aza-stilbene derivative; compound 2[34], alkynyl pyrimidine; compound 3[35], pyrazolo [1,5]-b]pyridazine; compound 4[36], phenoxypyrimidine; compound 5[37], 4,6-bis-anilino-1H-pyrrolo[2,3-pyrimidine (Table 1). […]. […] Among the hits, compounds for further mechanistic studies were chosen on the basis of their ligand efficiency. Ligand efficiency quantifies the molecular properties, particularly size and lipophilicity and is used as a selection criterion for structurally different compounds as more ‘efficient’ ligands have the potential to control for the inflation of these properties[38] Thus ligand efficiencies were calculated for the four hits (Supporting Information Table S2)[39]^,[40], and compound 1 was selected as the most promising for additional studies. Additionally, regarding the data of profiled compounds in large panels of human kinase assays[41] […] To provide sufficient amounts of compound 1 for kinetic and NMR studies, it was resynthesized according to the synthetic procedures (Figure 2) described in the literature.

E. coli MurD = E. coli MurD (Escherichia coli, UniProt P14900); assay: biochemical
How it was run: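 Orthophosphate released by E. coli MurD quantified by malachite green (Biomol green) absorbance at 650 nm after 15 min at 37 °C. Residual activity relative to DMSO-only controls.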

E. coli MurF = E. coli MurF (Escherichia coli, UniProt P11880); assay: biochemical
[1] = Table S3, aza stilbene compounds
[2] = residual activity at 100 µM compound, Table 1
[3] = ligand efficiency, LE = (1.37 × pIC50)/HAC

Sequence of E. coli MurD (P14900 whole entry): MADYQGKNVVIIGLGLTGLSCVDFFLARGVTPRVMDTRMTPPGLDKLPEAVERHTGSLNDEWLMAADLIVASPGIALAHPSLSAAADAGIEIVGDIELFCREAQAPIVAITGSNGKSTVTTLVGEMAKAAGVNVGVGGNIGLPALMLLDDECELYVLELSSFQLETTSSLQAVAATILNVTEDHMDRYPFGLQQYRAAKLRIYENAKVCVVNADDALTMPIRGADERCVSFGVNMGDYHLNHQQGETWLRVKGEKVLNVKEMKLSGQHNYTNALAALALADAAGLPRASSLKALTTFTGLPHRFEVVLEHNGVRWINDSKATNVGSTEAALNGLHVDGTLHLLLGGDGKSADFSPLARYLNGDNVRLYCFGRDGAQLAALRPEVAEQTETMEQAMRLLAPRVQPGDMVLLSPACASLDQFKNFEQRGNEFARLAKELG
Sequence of MurD from E. coli (P14900 whole entry): as above
Sequence of E. coli MurE (P22188 whole entry): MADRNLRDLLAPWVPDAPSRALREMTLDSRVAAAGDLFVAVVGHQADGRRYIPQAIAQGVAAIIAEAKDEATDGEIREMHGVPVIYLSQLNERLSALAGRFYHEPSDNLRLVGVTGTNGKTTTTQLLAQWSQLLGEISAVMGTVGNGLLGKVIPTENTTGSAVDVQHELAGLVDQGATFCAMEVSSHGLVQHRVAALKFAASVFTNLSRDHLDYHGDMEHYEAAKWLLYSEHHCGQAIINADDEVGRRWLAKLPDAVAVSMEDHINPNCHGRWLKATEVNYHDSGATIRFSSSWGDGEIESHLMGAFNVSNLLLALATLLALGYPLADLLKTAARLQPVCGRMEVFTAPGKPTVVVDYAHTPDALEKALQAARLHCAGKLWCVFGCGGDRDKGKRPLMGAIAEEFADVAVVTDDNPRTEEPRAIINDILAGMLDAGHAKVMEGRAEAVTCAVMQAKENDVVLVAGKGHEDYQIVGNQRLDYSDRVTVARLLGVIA
Sequence of E. coli MurF (P11880 whole entry): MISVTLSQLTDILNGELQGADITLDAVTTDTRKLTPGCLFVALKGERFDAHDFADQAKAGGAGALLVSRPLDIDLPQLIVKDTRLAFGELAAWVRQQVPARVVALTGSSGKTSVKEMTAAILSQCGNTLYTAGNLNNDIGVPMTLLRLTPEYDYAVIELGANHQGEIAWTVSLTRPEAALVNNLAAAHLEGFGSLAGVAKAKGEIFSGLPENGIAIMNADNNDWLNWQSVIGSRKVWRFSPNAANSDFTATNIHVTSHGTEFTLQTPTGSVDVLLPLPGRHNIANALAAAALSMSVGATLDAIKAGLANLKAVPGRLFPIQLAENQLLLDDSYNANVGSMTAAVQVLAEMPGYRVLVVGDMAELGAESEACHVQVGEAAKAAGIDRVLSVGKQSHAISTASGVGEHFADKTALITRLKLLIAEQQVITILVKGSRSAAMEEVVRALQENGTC

Cc1cc(-c2ccco2)cc(C)c1/C=C/c1cncc(-c2nn[nH]n2)c1 [Compound 1]
Ki (MurD from E. coli; substrate ATP varied, fixed D-Glu 100 µM, UMA 80 µM): 18.7 ± 2.6 µM | Ki (MurD from E. coli; substrate D-Glu varied, fixed ATP 400 µM, UMA 80 µM): 65.5 ± 4.9 µM | Ki (MurD from E. coli; substrate UMA varied, fixed ATP 400 µM, D-Glu 100 µM): 14.8 ± 11.2 µM | Inhibition mechanism (MurD from E. coli; versus substrate ATP): Mixed (full) | Inhibition mechanism (MurD from E. coli; versus substrate D-Glu): Competitive (full) | Inhibition mechanism (MurD from E. coli; versus substrate UMA): Mixed (partial) | IC50 (E. coli MurE): 79 µM | RA (%) MurE (E. coli MurE; [1]): 49% | MurE RA [%] (E. coli MurE; [2]): 49% | remaining activity at 100 µM (E. coli MurD; 0.25 h, Table S1, PKIS screening, read-out: RA [%] at 100 µM MurD): 45% | IC50 (E. coli MurD; Table 1, read-out: MurD IC50): 104 µM | LE (MurD) (E. coli MurD; [3]): 0.21 | MurD RA [%] (E. coli MurD; [2]): 45% | remaining activity at 100 µM (E. coli MurF; 0.25 h, Table S1, PKIS screening, read-out: RA [%] at 100 µM MurF): 26% | IC50 (E. coli MurF; Table 1): 59 µM | RA (%) MurF (E. coli MurF; [1]): 26% | LE (MurF) (E. coli MurF; [3]): 0.22 | MurF RA [%] (E. coli MurF; [2]): 26%
